Experimental data taken from the OligoGym collection.
Values joined by “and” are separate entries in the source; they are usually repeats but may differ in a detail not shown here. Equal entries are not always repeated. After the bases stand the sugars from the 5' end (letter, count) and the backbone: PS all phosphorothioate, else s phosphorothioate and o phosphodiester by linkage. Methylation of C is not given here. e = 2'-O-(2-methoxyethyl) (MOE); k = constrained ethyl (cEt); d = 2'-deoxy (DNA)

Biological target: IRF4
Conditions: ASO

Row | Sequence | target mRNA inhibition (SK-MEL-28, 4 µM) [%] | target mRNA inhibition (MM.1R, 1 µM) | other results
1 | ACTCATGGAGGATCAT (sugars k3 d10 k3, PS) | 19 |  | 
2 | TGGAGATACTTGTACT (sugars k3 d10 k3, PS) |  | 42% and 21% | target mRNA inhibition (MM.1R, 0.0625 µM): -15%; target mRNA inhibition (MM.1R, 0.25 µM): -7%; target mRNA inhibition (MM.1R, 4 µM): 58%
3 | CAGCATTGGACCCACG (sugars k3 d10 k3, PS) |  | 4% | 
4 | ATCCTGTAGTATGAGA (sugars k3 d10 k3, PS) | 45 |  | 
5 | CTACACCTACACAGGC (sugars k3 d10 k3, PS) | 16 |  | 
6 | GTTGACAAATAAGGTA (sugars k3 d10 k3, PS) | 60 |  | 
7 | ATAAAGGACCCCGCCA (sugars k3 d10 k3, PS) | 18 |  | 
8 | CAGCAAGTGTCTTCCA (sugars k3 d10 k3, PS) | 64 |  | 
9 | CTTGATAAAGGCTGAA (sugars k3 d10 k3, PS) | 60 |  | 
10 | CAAATTCAGGAGAGCC (sugars k3 d10 k3, PS) | 19 |  | 
11 | GAGCGGCCGTGGTGAG (sugars k3 d10 k3, PS) | 41 |  | 
12 | AGTGATGTCAGGTTTT (sugars kdddddddddkekeke, PS) |  | 40% | 
13 | GAGCCGCCACATCAGC (sugars k3 d10 k3, PS) | 23 |  | 
14 | ACTTTTAGAGAGGAGA (sugars k3 d9 k3 e1, PS) |  | 36% | 
15 | GCTAGAACATGATGAG (sugars k3 d10 k3, PS) | 14 |  | 
16 | AGTTGTAAATGAGTCG (sugars kkdddddddddkdkdk, PS) |  | 39% | 
17 | AGAACTTGCTAAGTCT (sugars k3 d10 k3, PS) |  | -34% | 
18 | GTGTCTAAAGTCCCAT (sugars kkddddddddddkeke, PS) |  | 9% and 6% | 
19 | TAAACTTGGCTGTGGG (sugars k3 d10 k3, PS) | 27 |  | 
20 | AAATCTTCAACAGCAC (sugars k3 d10 k3, PS) | 45 |  | 
21 | GACAGAGAGTCCGACG (sugars k3 d10 k3, PS) | -1 |  | 
22 | AGGAGGGTTGGCCTGC (sugars k3 d10 k3, PS) | 4 |  | 

Row | Sequence | target mRNA inhibition (SK-MEL-28, 4 µM) [%] | target mRNA inhibition (MM.1R, 1 µM) | other results
23 | GCGAATGTGCCTTGTG (sugars k3 d10 k3, PS) |  | 12% | 
24 | AGCCAAAGTGACTTAA (sugars k3 d10 k3, PS) | 58 |  | 
25 | GGACAGACCAGGATTC (sugars k3 d10 k3, PS) | 25 |  | 
26 | AGACATACCTACAAGC (sugars k3 d10 k3, PS) | 50 |  | 
27 | GAAGTTTACACTGGAT (sugars e1 k2 d9 k2 e2, PS) |  | 48% | 
28 | AGTGACTTGCATCCAT (sugars k2 d9 e3 k2, PS) |  | 52% | 
29 | CAAACTCCTCAGGGAA (sugars k4 d8 k4, PS) | 17 |  | 
30 | GATGTGATAGCTGAGC (sugars kdddddddddkekeke, PS) |  | 18% | 
31 | AGCTTGATAAAGGCTG (sugars k2 d9 e3 k2, PS) |  | 3% | 
32 | AACGGCCTGGAGGTGA (sugars k3 d10 k3, PS) |  | 1% | 
33 | AGAAACAGAGACGCGG (sugars k3 d10 k3, PS) |  | 11% | 
34 | GTGATAGCTGAGCTGA (sugars kkdddddddddkekek, PS) |  | 39% | 
35 | ACAGAGCCAACTTATA (sugars k3 d10 k3, PS) | 6 |  | 
36 | CTGCGAAGCGCGCGCG (sugars k3 d10 k3, PS) |  | -6% | 
37 | AGCTAGCGCGCACTAA (sugars k3 d10 k3, PS) |  | -8% | 
38 | ACAGGCACGGCTTCAG (sugars k3 d10 k3, PS) | 64 |  | 
39 | TGCATCTATAAGATGT (sugars k4 d8 k4, PS) | 10 |  | 
40 | TCGGAGCGACCCAAAT (sugars k3 d10 k3, PS) |  | 12% | 
41 | AGCCACGAGGCACCGC (sugars k3 d10 k3, PS) | 12 |  | 
42 | CGCCACATCAGCAGAC (sugars k3 d10 k3, PS) | 12 |  | 
43 | GACTTAACCCACATCA (sugars k3 d10 k3, PS) | -166 |  | 
44 | TTAAAGAGCGCATTTC (sugars k3 d10 k3, PS) | 41 |  | 

Row | Sequence | target mRNA inhibition (SK-MEL-28, 4 µM) [%] | target mRNA inhibition (MM.1R, 1 µM) | other results
45 | ACGGAAGTTTACACTG (sugars kkdddddddddkdkdk, PS) |  | -2% | 
46 | GTACAGGACAGGTAAA (sugars k3 d10 k3, PS) | 25 |  | 
47 | AAGTGTCTAAAGTCCC (sugars kdddddddddkekeke, PS) |  | 4% and 5% | 
48 | GAAACCCTCATCACCG (sugars k3 d10 k3, PS) |  | -38% | 
49 | ATGAGATATTCCTCTC (sugars k3 d10 k3, PS) | 32 |  | 
50 | GGCCTTGCCAGTGGTG (sugars k4 d8 k4, PS) | 6 |  | 
51 | TAACTGGCTTCCAGGA (sugars k3 d10 k3, PS) | 30 |  | 
52 | GGGAATTTCCATTGGA (sugars k3 d10 k3, PS) | 44 |  | 
53 | GCATCGAGATCAGTCT (sugars k3 d10 k3, PS) | 57 |  | 
54 | GTTGGAGCAGCCATAG (sugars k3 d10 k3, PS) | 31 |  | 
55 | AGTGCAGGAGAGGCTG (sugars k3 d10 k3, PS) | 36 |  | 
56 | ATCAGATGATGTCTAG (sugars k3 d10 k3, PS) | -3 |  | 
57 | CGCATTGCTAGATTCT (sugars k3 d10 k3, PS) |  | 37% and 27% | target mRNA inhibition (MM.1R, 0.0625 µM): -9%; target mRNA inhibition (MM.1R, 0.25 µM): 4%; target mRNA inhibition (MM.1R, 4 µM): 55%
58 | TAACCGGTAGAGTGAG (sugars k3 d10 k3, PS) |  | 27% | 
59 | AGGAATGAGGAAGCCG (sugars k3 d10 k3, PS) | 56 |  | 
60 | ACCCACGAAGATTCAA (sugars k3 d10 k3, PS) |  | -17% | 
61 | GTGAAACAGCAGTTCT (sugars k3 d10 k3, PS) | 62 |  | 
62 | TTATGTTAGCCAATTC (sugars kkdddddddddekeke, PS) |  | 9% and 8% | 
63 | GGCCCGGGCGCATCCC (sugars k3 d10 k3, PS) | 5 |  | 
64 | AAGCTTGATAAAGGCT (sugars kkkddddddddkekek, PS) |  | -4% | 
65 | AATGTCCACTGTTTTG (sugars k3 d10 k3, PS) | 47 |  | 
66 | CGAATAGGACCCCTAT (sugars k3 d10 k3, PS) | 9 |  | 

Row | Sequence | target mRNA inhibition (SK-MEL-28, 4 µM) [%] | target mRNA inhibition (MM.1R, 1 µM) | other results
67 | TGAACGGAAGTTTACA (sugars k3 d10 k3, PS) |  | 14% | 
68 | ACACTTTTAGAGAGGA (sugars kkkddddddddkekek, PS) |  | 15% | 
69 | ACACACCTGACAACCA (sugars k3 d10 k3, PS) | 36 |  | 
70 | CCTATGCTGAACCCCA (sugars k3 d10 k3, PS) |  | -12% | 
71 | AAGCAGTGATGTCAGG (sugars kkdddddddddkekek, PS) |  | 43% and 44% | 
72 | ACTTTTAGAGAGGAGA (sugars kkdddddddddkekek, PS) |  | 40% | 
73 | AGTGATGTCAGGTTTT (sugars k2 d9 e3 k2, PS) |  | 25% | 
74 | GCTGAACCCCACAGGA (sugars k3 d10 k3, PS) |  | 0% | 
75 | GAAATATACCAGCTCA (sugars k3 d10 k3, PS) | 61 |  | 
76 | GATTTCTAGGTAATCT (sugars k3 d10 k3, PS) | 31 |  | 
77 | CCTTAAGCTATTTGGT (sugars k3 d10 k3, PS) |  | -786% | 
78 | AGTCTTTTCGCATAGA (sugars k3 d10 k3, PS) | 45 |  | 
79 | TTTATGCGAAGAATTT (sugars k3 d10 k3, PS) | 33 |  | 
80 | TCTGTAGGGCGACTAA (sugars k3 d10 k3, PS) | 65 |  | 
81 | AGAGAGTCCGACGCAC (sugars k3 d10 k3, PS) |  | -18% | 
82 | TGCAACTGGCTCACTA (sugars k3 d10 k3, PS) | 17 |  | 
83 | ATTTAAGTCATGTGTC (sugars k3 d10 k3, PS) |  | 17% | 
84 | ACCTCAGTTTGTGAAG (sugars kkdddddddddkdkdk, PS) |  | -3% | 
85 | TCCACTTCTGAATTCC (sugars k3 d10 k3, PS) | 19 |  | 
86 | GTAACTTGACTTGAGA (sugars k3 d10 k3, PS) | 49 |  | 
87 | TTCTAGCTAACTTACA (sugars k3 d10 k3, PS) |  | -18% | 
88 | TCGCAGGAGCGCGGAG (sugars k3 d10 k3, PS) | -37 |  | 

Row | Sequence | target mRNA inhibition (SK-MEL-28, 4 µM) [%] | target mRNA inhibition (MM.1R, 1 µM) | other results
89 | TGTTACTTTCAAATCG (sugars k3 d10 k3, PS) | 48 |  | 
90 | ATAACGGTGTTTCAGA (sugars k3 d10 k3, PS) | 47 |  | 
91 | ATTCATTTTATGGACC (sugars k3 d10 k3, PS) | 42 |  | 
92 | TTGATGTGATAGCTGA (sugars k2 d9 e3 k2, PS) |  | 17% | 
93 | TTAGGAACGAAGAGCA (sugars k3 d10 k3, PS) | 32 |  | 
94 | ATAGTAGGTAAGATCT (sugars k3 d10 k3, PS) | -13 |  | 
95 | GAGGACCACGCCCCTC (sugars k3 d10 k3, PS) | -3 |  | 
96 | AAGCGCACCGCAGGCG (sugars k3 d10 k3, PS) | 4 |  | 
97 | CGCCAGCGGGTGAGCA (sugars k3 d10 k3, PS) |  | 19% | 
98 | TTGAAAGACTAACTGG (sugars k3 d10 k3, PS) | 20 |  | 
99 | TACCATATTGGAAACC (sugars k3 d10 k3, PS) | 48 |  | 
100 | TGGCATGCGAATGTGC (sugars k3 d10 k3, PS) |  | -21% | 
101 | GATCTCCATGGTGCAG (sugars k3 d10 k3, PS) |  | 22% and 12% | 
102 | AGTAAGAGGGCAGTCA (sugars k3 d10 k3, PS) | 50 |  | 
103 | AGGCACATCAATGTTT (sugars kkdddddddddkekek, PS) |  | 16% and 19% | 
104 | TAGATAACATGAGAGT (sugars k3 d10 k3, PS) | 50 |  | 
105 | GCACAGGCGCGGACGC (sugars k3 d10 k3, PS) |  | -6% | 
106 | GAGCAGAACGAGGTAA (sugars k3 d10 k3, PS) | 55 |  | 
107 | TTTATGTTAGCCAATT (sugars kkdddddddddkekek, PS) |  | 9% and 15% | 
108 | ACTTATTTGTGGCTCA (sugars k3 d10 k3, PS) |  | 36% | 
